Assay results published in publication PMC9329436, “Optimization of the 4-anilinoquin(az)oline scaffold as epidermal growth factor receptor (EGFR) inhibitors for chordoma utilizing a toxicology profiling assay platform” (Scientific Reports, 2022).
Where two headings read alike, the source gives them in different places.

What was measured:
Format in all cases: biochemical
[1] = biological target: T1, 320 wild-type protein kinases (Homo sapiens, UniProt P42679); details: MATK, singlicate
T1 sequence (P42679 1-507): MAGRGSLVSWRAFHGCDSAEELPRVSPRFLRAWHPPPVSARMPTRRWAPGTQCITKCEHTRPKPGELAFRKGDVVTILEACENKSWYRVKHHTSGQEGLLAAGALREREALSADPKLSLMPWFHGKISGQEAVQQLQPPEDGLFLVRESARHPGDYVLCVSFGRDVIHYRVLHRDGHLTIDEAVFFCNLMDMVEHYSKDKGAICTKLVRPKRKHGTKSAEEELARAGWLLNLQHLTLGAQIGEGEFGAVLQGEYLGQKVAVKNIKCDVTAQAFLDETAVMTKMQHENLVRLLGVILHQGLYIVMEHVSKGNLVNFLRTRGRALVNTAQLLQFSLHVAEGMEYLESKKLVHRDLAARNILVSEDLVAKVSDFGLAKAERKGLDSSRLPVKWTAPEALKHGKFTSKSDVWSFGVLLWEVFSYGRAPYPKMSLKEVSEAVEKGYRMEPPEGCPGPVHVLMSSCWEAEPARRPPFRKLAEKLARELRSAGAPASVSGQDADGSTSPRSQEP
From the text: (§1) Table S4. Profiling of two compounds at two concentrations against 320 wild-type protein kinases; singlicate measurement; Residual activities (% of control).

[2] = biological target: 320 wild-type protein kinases (Homo sapiens, UniProt Q9H4A3); details: kinase WNK1, singlicate
From the text: as §1

[3] = biological target: 320 wild-type protein kinases (Homo sapiens, UniProt P42345); details: mTOR, singlicate
From the text: as §1

[4] = biological target: 320 wild-type protein kinases (Homo sapiens, UniProt Q04912); details: kinase RON, singlicate
From the text: as §1

[5] = biological target: T2, 320 wild-type protein kinases (Homo sapiens, UniProt Q92630); details: singlicate
T2 sequence (Q92630 1-601): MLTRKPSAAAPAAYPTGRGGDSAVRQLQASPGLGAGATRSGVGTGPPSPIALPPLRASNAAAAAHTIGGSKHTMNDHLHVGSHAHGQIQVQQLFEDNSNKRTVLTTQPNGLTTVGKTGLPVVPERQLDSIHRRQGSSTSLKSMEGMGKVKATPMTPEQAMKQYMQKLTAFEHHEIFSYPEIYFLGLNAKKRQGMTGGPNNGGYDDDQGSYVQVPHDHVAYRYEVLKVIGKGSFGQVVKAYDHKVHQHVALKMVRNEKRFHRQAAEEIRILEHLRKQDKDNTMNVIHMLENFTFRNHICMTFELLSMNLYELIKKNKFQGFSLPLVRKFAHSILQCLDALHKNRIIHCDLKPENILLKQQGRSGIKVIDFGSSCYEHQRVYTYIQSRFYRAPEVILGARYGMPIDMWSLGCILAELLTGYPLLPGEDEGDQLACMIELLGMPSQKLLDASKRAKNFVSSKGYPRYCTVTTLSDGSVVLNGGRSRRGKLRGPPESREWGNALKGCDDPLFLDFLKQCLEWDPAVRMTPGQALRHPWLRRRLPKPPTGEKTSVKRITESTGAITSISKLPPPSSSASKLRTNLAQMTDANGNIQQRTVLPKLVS
From the text: as §1

[6] = biological target: T3, 320 wild-type protein kinases (Homo sapiens, UniProt Q09013); details: DMPK, singlicate
T3 sequence (Q09013 1-629): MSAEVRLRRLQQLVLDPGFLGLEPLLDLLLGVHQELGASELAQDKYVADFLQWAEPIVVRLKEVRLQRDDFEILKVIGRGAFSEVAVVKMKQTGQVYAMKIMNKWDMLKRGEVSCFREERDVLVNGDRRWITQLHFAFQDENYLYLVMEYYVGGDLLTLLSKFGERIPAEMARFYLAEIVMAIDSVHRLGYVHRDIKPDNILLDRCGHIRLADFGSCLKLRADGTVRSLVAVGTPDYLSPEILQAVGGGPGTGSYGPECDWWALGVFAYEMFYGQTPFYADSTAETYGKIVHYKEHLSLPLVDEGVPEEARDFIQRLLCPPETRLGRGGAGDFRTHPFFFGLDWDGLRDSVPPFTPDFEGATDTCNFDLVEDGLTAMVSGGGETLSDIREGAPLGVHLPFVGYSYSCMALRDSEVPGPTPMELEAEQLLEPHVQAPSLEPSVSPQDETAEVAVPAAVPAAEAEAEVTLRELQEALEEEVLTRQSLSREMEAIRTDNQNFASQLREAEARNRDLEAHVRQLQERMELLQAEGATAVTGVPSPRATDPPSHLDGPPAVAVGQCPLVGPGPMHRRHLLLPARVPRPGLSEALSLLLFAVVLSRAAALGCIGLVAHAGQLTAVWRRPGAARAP
From the text: as §1

[7] = biological target: T4, 320 wild-type protein kinases (Homo sapiens, UniProt Q8NE63); details: singlicate
T4 sequence (Q8NE63 1-616): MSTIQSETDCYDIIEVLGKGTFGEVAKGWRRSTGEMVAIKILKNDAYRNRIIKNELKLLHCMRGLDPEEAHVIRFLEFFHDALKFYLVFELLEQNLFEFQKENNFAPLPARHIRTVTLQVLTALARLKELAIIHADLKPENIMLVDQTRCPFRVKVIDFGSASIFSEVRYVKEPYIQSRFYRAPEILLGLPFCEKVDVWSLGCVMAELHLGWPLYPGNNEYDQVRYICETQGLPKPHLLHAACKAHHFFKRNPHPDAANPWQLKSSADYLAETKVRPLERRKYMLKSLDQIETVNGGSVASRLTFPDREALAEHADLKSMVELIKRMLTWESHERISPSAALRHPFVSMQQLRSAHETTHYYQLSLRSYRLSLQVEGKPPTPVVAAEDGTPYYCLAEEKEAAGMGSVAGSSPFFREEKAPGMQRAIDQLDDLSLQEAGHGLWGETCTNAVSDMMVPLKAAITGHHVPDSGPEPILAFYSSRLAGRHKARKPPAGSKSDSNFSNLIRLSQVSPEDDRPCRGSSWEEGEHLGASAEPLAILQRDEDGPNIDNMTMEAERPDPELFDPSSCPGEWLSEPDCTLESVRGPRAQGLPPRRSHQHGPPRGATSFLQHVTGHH
From the text: as §1

[8] = biological target: 320 wild-type protein kinases (Homo sapiens, UniProt Q15418); details: kinase RPS6KA1, singlicate
From the text: as §1

Sequence of 320 wild-type protein kinases (Homo sapiens, UniProt Q04912) (Q04912 25-1400): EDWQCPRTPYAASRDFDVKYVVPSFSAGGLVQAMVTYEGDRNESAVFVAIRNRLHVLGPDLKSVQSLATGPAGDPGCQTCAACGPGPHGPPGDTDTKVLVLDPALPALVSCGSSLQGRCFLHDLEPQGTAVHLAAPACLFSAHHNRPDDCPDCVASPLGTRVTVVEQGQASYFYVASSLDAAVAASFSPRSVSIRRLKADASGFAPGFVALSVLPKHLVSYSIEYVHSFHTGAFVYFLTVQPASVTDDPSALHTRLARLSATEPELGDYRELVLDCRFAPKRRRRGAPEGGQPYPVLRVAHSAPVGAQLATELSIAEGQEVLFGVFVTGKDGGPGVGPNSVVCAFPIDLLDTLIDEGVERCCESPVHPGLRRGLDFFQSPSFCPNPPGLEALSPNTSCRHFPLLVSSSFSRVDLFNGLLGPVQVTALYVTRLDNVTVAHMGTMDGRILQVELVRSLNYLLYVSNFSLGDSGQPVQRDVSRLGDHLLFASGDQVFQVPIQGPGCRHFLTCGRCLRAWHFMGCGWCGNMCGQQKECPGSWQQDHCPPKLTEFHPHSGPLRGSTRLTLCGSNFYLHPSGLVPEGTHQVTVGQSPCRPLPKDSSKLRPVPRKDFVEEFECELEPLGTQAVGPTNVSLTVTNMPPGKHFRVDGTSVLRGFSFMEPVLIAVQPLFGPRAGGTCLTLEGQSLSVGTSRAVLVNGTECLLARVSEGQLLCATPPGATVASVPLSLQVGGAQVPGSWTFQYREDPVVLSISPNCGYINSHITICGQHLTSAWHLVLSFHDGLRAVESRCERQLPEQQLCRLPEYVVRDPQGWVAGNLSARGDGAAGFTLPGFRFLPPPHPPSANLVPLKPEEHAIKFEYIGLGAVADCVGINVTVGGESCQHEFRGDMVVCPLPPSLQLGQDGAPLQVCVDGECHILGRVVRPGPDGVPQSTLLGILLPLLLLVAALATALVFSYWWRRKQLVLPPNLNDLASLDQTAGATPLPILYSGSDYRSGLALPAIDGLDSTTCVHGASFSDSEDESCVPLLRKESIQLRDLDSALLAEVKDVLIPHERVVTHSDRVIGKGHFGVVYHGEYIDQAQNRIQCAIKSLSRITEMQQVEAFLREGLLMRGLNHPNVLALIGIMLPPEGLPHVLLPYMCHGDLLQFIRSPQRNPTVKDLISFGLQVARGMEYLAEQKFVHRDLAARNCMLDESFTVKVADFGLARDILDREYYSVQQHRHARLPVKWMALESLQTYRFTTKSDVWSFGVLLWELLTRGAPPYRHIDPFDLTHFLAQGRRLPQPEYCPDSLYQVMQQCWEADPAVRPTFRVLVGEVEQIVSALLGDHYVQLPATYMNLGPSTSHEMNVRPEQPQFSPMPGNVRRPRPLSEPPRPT
Sequence of 320 wild-type protein kinases (Homo sapiens, UniProt Q9H4A3) (Q9H4A3 whole entry): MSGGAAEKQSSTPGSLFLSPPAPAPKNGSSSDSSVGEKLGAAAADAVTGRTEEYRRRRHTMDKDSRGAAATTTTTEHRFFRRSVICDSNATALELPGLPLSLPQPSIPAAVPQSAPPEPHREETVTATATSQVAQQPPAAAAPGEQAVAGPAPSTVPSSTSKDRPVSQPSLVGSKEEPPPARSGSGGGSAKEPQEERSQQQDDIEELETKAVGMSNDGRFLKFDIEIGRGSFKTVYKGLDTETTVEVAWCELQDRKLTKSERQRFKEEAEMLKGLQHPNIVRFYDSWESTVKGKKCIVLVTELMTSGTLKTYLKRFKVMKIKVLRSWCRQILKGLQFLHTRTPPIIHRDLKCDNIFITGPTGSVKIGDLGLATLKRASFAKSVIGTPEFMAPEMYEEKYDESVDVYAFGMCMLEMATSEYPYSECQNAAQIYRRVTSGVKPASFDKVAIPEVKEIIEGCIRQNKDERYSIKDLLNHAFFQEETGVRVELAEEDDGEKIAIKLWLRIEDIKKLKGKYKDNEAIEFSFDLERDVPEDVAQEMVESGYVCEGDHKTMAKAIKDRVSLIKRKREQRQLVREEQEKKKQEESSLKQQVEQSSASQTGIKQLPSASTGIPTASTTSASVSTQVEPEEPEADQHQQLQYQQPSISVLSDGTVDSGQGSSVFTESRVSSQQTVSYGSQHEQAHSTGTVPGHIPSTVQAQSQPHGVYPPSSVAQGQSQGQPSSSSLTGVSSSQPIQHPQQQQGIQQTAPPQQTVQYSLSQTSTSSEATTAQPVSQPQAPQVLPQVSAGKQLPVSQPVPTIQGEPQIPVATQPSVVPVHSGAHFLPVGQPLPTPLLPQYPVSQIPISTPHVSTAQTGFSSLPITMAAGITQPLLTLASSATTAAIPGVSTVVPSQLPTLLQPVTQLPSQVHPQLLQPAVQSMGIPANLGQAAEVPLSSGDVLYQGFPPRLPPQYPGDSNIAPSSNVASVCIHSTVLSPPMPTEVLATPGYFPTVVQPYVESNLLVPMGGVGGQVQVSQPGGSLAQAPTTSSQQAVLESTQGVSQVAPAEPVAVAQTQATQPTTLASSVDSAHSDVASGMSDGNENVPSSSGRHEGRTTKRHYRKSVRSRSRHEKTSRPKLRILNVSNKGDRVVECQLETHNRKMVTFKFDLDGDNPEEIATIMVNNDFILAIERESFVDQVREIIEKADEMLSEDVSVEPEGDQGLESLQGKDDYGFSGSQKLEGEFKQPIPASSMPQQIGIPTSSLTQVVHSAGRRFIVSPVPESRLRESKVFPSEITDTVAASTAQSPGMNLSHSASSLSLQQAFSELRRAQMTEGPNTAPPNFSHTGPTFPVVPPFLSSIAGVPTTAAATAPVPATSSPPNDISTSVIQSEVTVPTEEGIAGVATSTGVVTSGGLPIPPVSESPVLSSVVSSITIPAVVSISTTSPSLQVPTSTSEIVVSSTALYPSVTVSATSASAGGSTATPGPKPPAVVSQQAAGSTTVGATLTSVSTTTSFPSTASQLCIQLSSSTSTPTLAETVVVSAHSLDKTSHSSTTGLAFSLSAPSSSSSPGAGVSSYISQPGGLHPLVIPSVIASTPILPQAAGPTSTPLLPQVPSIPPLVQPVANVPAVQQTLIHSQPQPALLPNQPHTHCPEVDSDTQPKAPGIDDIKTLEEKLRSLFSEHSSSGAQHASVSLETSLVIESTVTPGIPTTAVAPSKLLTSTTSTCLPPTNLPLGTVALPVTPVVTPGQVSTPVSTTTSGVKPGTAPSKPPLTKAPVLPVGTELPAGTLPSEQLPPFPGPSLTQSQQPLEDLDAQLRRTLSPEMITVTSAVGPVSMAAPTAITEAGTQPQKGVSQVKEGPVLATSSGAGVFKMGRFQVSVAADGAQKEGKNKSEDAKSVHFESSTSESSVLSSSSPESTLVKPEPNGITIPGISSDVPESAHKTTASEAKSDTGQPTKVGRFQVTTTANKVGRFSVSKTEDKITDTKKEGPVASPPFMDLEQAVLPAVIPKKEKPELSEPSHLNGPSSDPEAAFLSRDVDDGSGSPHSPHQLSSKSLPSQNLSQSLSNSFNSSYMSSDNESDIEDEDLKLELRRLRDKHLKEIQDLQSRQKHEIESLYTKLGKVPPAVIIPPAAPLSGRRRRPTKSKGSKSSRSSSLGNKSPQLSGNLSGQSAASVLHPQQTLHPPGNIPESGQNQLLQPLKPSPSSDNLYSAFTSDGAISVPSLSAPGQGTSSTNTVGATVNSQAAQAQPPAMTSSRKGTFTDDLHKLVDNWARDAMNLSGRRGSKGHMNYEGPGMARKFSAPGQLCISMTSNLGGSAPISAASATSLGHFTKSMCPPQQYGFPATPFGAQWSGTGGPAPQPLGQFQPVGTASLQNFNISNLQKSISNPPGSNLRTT
Sequence of 320 wild-type protein kinases (Homo sapiens, UniProt Q15418) (Q15418 whole entry): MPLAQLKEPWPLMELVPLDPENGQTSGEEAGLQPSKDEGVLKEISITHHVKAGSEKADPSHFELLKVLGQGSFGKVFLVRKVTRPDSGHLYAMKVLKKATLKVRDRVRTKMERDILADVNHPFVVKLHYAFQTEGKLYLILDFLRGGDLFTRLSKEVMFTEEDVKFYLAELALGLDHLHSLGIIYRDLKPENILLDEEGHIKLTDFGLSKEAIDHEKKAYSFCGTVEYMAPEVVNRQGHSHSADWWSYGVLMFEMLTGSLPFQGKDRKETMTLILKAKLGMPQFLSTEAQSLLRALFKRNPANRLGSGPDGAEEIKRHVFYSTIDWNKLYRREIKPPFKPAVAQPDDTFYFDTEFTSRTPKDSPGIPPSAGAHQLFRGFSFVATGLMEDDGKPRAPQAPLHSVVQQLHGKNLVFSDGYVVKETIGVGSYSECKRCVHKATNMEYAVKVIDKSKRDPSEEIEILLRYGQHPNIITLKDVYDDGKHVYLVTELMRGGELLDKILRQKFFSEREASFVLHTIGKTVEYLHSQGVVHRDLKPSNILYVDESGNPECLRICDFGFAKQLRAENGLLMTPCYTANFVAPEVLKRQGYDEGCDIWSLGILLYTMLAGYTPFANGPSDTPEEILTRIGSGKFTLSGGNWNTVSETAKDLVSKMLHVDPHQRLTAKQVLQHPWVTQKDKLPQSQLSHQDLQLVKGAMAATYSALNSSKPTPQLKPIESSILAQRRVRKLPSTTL

Structure (SMILES)	Residual activity ([1]; 1.0E-06 M)	Residual activity ([1]; 1.0E-07 M)	Residual activity, WNK1 ([2]; assay conc. 1.0E-06 M)	Residual activity, WNK1 ([2]; assay conc. 1.0E-07 M)	Residual activity ([3]; 1.0E-06 M)	Residual activity ([3]; 1.0E-07 M)	Residual activity, RON ([4]; assay conc. 1.0E-06 M)	Residual activity, RON ([4]; assay conc. 1.0E-07 M)	Residual activity ([5]; DYRK2, 1.0E-06 M)	Residual activity ([5]; DYRK2, 1.0E-07 M)	Residual activity ([6]; 1.0E-06 M)	Residual activity ([6]; 1.0E-07 M)	Residual activity ([7]; HIPK4, 1.0E-06 M)	Residual activity ([7]; HIPK4, 1.0E-07 M)	Residual activity, RPS6KA1 ([8]; assay conc. 1.0E-06 M)	Residual activity, RPS6KA1 ([8]; assay conc. 1.0E-07 M)
C#Cc1cc(Nc2ncnc3cc(I)ccc23)ccc1Cl [Compound 41]	95 % of control	100 % of control	70 % of control	84 % of control	84 % of control	97 % of control	63 % of control	77 % of control	61 % of control	84 % of control	106 % of control	121 % of control	97 % of control	104 % of control	99 % of control	103 % of control
C#Cc1cc(Nc2ncnc3cc(OC)c(OC)cc23)ccc1Cl [Compound 45]	95 % of control	108 % of control	95 % of control	93 % of control	91 % of control	106 % of control	82 % of control	90 % of control	71 % of control	89 % of control	104 % of control	103 % of control	57 % of control	98 % of control	74 % of control	88 % of control
